Data published in ChEMBL document CHEMBL3046368, “Synthesis of benzothiazole derivatives and their biological evaluation as anticancer agents” (2012).
The source made the active and inactive calls. No cut-off for these calls is given here.

How the values were obtained:
[1] = test system: TK-10; assay: Cytotoxicity against Homo sapiens (human) TK10 cells after 48 hr by SRB assay; type: functional; conditions: TK-10, 48 h
[2] = test system: BT-549; assay: Cytotoxicity against Homo sapiens (human) BT549 cells after 48 hr by SRB assay; type: functional; conditions: BT-549, 48 h
[3] = test system: HOP-62; assay: Cytotoxicity against Homo sapiens (human) HOP62 cells after 48 hr by SRB assay; type: functional; conditions: HOP-62, 48 h
[4] = test system: OVCAR-3; assay: Cytotoxicity against Homo sapiens (human) OVCAR3 cells after 48 hr by SRB assay; type: functional; conditions: OVCAR-3, 48 h
[5] = test system: MCF7; assay: Cytotoxicity against Homo sapiens (human) MCF7 cells after 48 hr by SRB assay; type: functional; conditions: MCF7, 48 h
[6] = test system: UACC-257; assay: Cytotoxicity against Homo sapiens (human) UACC257 cells after 48 hr by SRB assay; type: functional; conditions: UACC-257, 48 h
[7] = test system: MDA-MB-435; assay: Cytotoxicity against Homo sapiens (human) MDA-MB-435 cells after 48 hr by SRB assay; type: functional; conditions: MDA-MB-435, 48 h
[8] = test system: SN12C; assay: Cytotoxicity against Homo sapiens (human) SN12C cells after 48 hr by SRB assay; type: functional
[9] = molecular target: T1, Ubiquitin-like modifier-activating enzyme 1 (Homo sapiens) (UniProt P22314); assay: Inhibition of ubiquitin displacement on His6-tagged E2 enzyme from His6-tagged UBA1 (unknown origin) at 10 uM after 1.5 hr by SDS-PAGE analysis
T1 sequence (whole entry): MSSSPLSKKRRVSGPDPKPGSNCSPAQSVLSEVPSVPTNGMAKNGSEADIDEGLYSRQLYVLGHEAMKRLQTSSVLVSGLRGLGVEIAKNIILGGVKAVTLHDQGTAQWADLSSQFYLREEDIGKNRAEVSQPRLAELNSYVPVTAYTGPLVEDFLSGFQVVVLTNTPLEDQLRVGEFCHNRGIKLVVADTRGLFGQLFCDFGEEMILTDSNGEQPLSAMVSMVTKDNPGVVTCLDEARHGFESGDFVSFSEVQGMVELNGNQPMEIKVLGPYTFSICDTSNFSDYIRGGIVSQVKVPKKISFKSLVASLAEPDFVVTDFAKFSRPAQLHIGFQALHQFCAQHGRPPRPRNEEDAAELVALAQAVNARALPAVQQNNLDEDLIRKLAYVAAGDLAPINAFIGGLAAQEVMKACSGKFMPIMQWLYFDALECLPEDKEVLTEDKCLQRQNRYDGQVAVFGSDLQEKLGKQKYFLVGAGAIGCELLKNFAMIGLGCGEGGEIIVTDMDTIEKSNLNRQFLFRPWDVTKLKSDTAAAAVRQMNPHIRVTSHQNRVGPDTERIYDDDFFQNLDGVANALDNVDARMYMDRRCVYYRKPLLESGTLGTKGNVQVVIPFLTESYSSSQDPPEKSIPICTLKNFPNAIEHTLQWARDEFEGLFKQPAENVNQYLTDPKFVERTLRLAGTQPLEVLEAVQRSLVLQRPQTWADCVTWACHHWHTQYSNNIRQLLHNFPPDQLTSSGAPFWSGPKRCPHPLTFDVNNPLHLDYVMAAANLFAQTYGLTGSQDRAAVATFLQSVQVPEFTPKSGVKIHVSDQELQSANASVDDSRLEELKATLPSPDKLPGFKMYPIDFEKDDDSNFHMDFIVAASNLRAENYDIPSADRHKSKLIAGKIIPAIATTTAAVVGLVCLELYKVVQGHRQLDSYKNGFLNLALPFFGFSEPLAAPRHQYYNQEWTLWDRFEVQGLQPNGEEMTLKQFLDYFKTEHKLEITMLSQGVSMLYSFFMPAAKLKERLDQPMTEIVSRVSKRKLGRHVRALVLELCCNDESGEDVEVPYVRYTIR

[10] = test system: ACHN; assay: Cytotoxicity against Homo sapiens (human) ACHN cells after 48 hr by SRB assay; type: functional
[11] = Cytotoxicity against Homo sapiens (human) prostate cancer cells assessed as cell growth at 10^-5 M after 48 hr by SRB assay relative to control; type: functional; conditions: Cancer cell lines, read-out: Activity
[12] = test system: OVCAR-8; assay: Cytotoxicity against Homo sapiens (human) OVCAR8 cells after 48 hr by SRB assay; type: functional; conditions: OVCAR-8, 48 h
[13] = test system: SR; assay: Cytotoxicity against Homo sapiens (human) SR cells after 48 hr by SRB assay; type: functional
[14] = Cytotoxicity against Homo sapiens (human) melanoma cells assessed as cell growth at 10^-5 M after 48 hr by SRB assay relative to control; type: functional; conditions: read-out: Activity
[15] = test system: UACC-62; assay: Cytotoxicity against Homo sapiens (human) UACC62 cells after 48 hr by SRB assay; type: functional; conditions: UACC-62, 48 h
[16] = test system: MDA-MB-231; assay: Cytotoxicity against Homo sapiens (human) MDA-MB-231 cells after 48 hr by SRB assay; type: functional; conditions: MDA-MB-231, 48 h
[17] = test system: A549; assay: Cytotoxicity against Homo sapiens (human) A549 cells after 48 hr by SRB assay; type: functional; conditions: A549, 48 h
[18] = test system: MDA-MB-468; assay: Cytotoxicity against Homo sapiens (human) MDA-MB-468 cells after 48 hr by SRB assay; type: functional; conditions: MDA-MB-468, 48 h
[19] = test system: SK-MEL-28; assay: Cytotoxicity against Homo sapiens (human) SK-MEL-28 cells after 48 hr by SRB assay; type: functional; conditions: SK-MEL-28, 48 h
[20] = test system: CAKI-1; assay: Cytotoxicity against Homo sapiens (human) Caki1 cells after 48 hr by SRB assay; type: functional; conditions: CAKI-1, 48 h
[21] = Cytotoxicity against Homo sapiens (human) NSCLC cells assessed as cell growth at 10^-5 M after 48 hr by SRB assay relative to control; type: functional; conditions: read-out: Activity
[22] = test system: Hs-578T; assay: Cytotoxicity against Homo sapiens (human) Hs578T cells after 48 hr by SRB assay; type: functional
[23] = test system: HOP-92; assay: Cytotoxicity against Homo sapiens (human) HOP92 cells after 48 hr by SRB assay; type: functional; conditions: HOP-92, 48 h
[24] = test system: SK-MEL-2; assay: Cytotoxicity against Homo sapiens (human) SK-MEL-2 cells after 48 hr by SRB assay; type: functional; conditions: SK-MEL-2, 48 h
[25] = test system: EKVX; assay: Cytotoxicity against Homo sapiens (human) EKVX cells after 48 hr by SRB assay; type: functional
[26] = test system: Malme-3M; assay: Cytotoxicity against Homo sapiens (human) MALME-3M cells after 48 hr by SRB assay; type: functional
[27] = test system: OVCAR-5; assay: Cytotoxicity against Homo sapiens (human) OVCAR5 cells after 48 hr by SRB assay; type: functional; conditions: OVCAR-5, 48 h
[28] = test system: RPMI-8226; assay: Cytotoxicity against Homo sapiens (human) RPMI8226 cells after 48 hr by SRB assay; type: functional; conditions: RPMI-8226, 48 h
[29] = Cytotoxicity against Homo sapiens (human) renal cancer cells assessed as cell growth at 10^-5 M after 48 hr by SRB assay relative to control; type: functional; conditions: Cancer cell lines, read-out: Activity
[30] = test system: HT-29; assay: Cytotoxicity against Homo sapiens (human) HT-29 cells after 48 hr by SRB assay; type: functional; conditions: HT-29, 48 h

| Structure (SMILES) | GI50 [1] | GI50 [2] | GI50 [3] | GI50 [4] | GI50 [5] | GI50 [6] | GI50 [7] | GI50 [8] | inhibition [9] | GI50 [10] | growth at 10 µM [11] | GI50 [12] | GI50 [13] | growth at 10 µM [14] | GI50 [15] | GI50 [16] | GI50 [17] | GI50 [18] | GI50 [19] | GI50 [20] | other results |
| --- | --- | --- | --- | --- | --- | --- | --- | --- | --- | --- | --- | --- | --- | --- | --- | --- | --- | --- | --- | --- | --- |
| N#Cc1ccc(NC(=O)Nc2nc3ccc(OC(F)(F)F)cc3s2)cc1 | 1.23 µM | 2.75 µM | 2.51 µM | 0.575 µM | 1 µM | 1.35 µM | 1.41 µM | 1.58 µM | inactive | 0.724 µM | 13% | 2 µM | 0.741 µM | -9.77% | 0.741 µM | 0.933 µM | 1.2 µM | 0.457 µM | 2.29 µM | 1.58 µM | growth at 10 µM [21]: -6.18%; GI50 [22]: 1.78 µM; GI50 [23]: 0.324 µM; GI50 [24]: 1.78 µM; GI50 [25]: 1.35 µM; GI50 [26]: 0.851 µM; GI50 [27]: 4.27 µM; GI50 [28]: 1 µM; growth at 10 µM [29]: -7.46%; GI50 [30]: 2.09 µM |
| O=C(Nc1ccc(F)cc1)Nc1nc2ccc(OC(F)(F)F)cc2s1 | 4.07 µM | 3.8 µM | 3.8 µM | 2.24 µM | 2.14 µM | 3.55 µM | 2.95 µM | 2.57 µM | inactive | 2.4 µM | 12.4% | 4.27 µM | 3.72 µM | 12% | 3.55 µM | 3.31 µM | 3.47 µM | 2.34 µM | 3.63 µM | 2.29 µM | growth at 10 µM [21]: 5.63%; GI50 [22]: 3.09 µM; GI50 [23]: 3.89 µM; GI50 [24]: 3.09 µM; GI50 [25]: 2.63 µM; GI50 [26]: 2.95 µM; GI50 [27]: 3.63 µM; GI50 [28]: 2.51 µM; growth at 10 µM [29]: 15.8%; GI50 [30]: 3.89 µM |
